Test [1] addresses Human Prostanoid EP4 Receptor (Homo sapiens (Human), UniProt P35408). The test can be described thus: Radioligand binding assay, agonist site of human prostanoid EP4 receptor in transfected HEK-293 cells. As to conditions: for IC50: read-out: hEP4 receptor binding IC50; for Ki: read-out: hEP4 receptor binding Ki. How it is done: Radioligand Binding Assay for the Evaluation of the Affinity of Compounds for the Agonist Site of the Human Prostanoid EP4 Receptor in Transfected HEK-293 Cells
Following incubation, the samples are filtered rapidly under vacuum through glass fiber filters (GF/B, Packard) presoaked with 0.3% PEI and rinsed several times with ice-cold 50 mM Tris-HCl using a 96-sample cell harvester (Unifilter, Packard). The filters are dried then counted for radioactivity in a scintillation counter (Topcount, Packard) using a scintillation cocktail (Microscint 0, Packard).

The target of test [2] is T1, rat EP4 receptor (Rattus norvegicus (Rat), UniProt P43114). Nature of the test: cAMP level assay for EP4 agonist (STEP plate format). The class given is cell-based. The conditions noted are these: read-out: STEP cell functional assay EC50 cAMP/EP4. An excerpt:
(§1) Functional Cellular Assays (STEP Plate Format)
(§2) Procedure of cAMP Assay for EP2/EP4 Agonist
(§3) 3. […] In addition each concentration had triplicates.
(§4) 6. Aspirate the supernatant.

The target in test [3] is T1, rat EP4 receptor. The test can be described thus: SEAP activity assay for EP4 agonist (STEP plate format). The class given is cell-based. As to conditions: read-out: STEP cell functional assay EC50 SEAP/EP4.
Description: as §1
(§5) Procedure of SEAP Activity Assay for EP2/EP4 Agonist
as §3
(§6) 4. […] Cover the plate with the lid.

Test [4] deals with T2, rat EP2 receptor (Rattus norvegicus (Rat), UniProt Q62928). Nature of the test: SEAP activity assay for EP2 agonist (STEP plate format). The conditions noted are these: read-out: STEP cell functional assay EC50 SEAP/EP2. The test is classed as cell-based.
T2 sequence (Q62928 whole entry): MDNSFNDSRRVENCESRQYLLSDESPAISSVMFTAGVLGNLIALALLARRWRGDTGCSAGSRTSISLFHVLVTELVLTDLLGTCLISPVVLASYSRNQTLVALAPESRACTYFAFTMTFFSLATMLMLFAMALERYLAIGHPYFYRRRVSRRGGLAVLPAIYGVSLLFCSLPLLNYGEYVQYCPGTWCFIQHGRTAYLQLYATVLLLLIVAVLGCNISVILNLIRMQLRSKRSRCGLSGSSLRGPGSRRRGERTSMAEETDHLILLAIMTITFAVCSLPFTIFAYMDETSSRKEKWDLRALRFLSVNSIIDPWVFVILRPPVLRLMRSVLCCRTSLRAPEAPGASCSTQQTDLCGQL
Description: as §1, §5, §3, §6

The test system of the next test is calvarial bone defect. The test can be described thus: Rat calvarial defect model (bone formation). The class given is in vivo, female Sprague Dawley rats. The conditions noted are these: rat cranial defect 2.6 mm, drug in calcium phosphate cement/demineralized bone matrix, eight weeks.
Test [5] addresses T2, rat EP2 receptor. Nature of the test: cAMP level assay for EP2 agonist (STEP plate format). The class given is cell-based. The conditions noted are these: cAMP readout, read-out: STEP cell functional assay EC50 cAMP/EP2.
Description: as §1, §2, §3, §4
(In general: cAMP levels reflect the balance of adenylyl cyclase and phosphodiesterase activity.)

Where [6] appears, read: [3H]PGE2 0.5 nM, HEK-293 cell membrane homogenates.
Setting [7] is: cAMP by ELISA, 30 minutes, 500 μM IBMX.
Setting [8] is: SEAP luminescence, 6-8 hours of stimulation.

Structures are written as SMILES. Read-outs that look alike come from different tables or passages of the source.

The results in this text go back to patent US9180116B2, “Difluorolactam compounds as EP4 receptor-selective agonists for use in the treatment of EP4-mediated diseases and conditions” (Cayman Chemical Company, Inc., priority 2012, dated 2015).

Sequence of Human Prostanoid EP4 Receptor (P35408 whole entry): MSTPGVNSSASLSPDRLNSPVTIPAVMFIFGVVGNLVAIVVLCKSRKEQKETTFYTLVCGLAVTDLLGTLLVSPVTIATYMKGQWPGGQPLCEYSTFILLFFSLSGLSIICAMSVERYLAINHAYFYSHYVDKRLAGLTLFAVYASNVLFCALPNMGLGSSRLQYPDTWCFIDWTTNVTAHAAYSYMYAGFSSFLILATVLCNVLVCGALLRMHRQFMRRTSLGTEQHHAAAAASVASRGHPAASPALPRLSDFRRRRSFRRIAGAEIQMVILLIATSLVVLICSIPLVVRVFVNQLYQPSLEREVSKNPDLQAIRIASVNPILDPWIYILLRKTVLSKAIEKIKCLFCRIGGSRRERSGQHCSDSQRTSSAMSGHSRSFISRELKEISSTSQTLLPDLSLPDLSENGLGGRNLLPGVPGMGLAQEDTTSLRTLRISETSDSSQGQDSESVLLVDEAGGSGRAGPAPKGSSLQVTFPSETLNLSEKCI
T1 sequence (P43114 whole entry): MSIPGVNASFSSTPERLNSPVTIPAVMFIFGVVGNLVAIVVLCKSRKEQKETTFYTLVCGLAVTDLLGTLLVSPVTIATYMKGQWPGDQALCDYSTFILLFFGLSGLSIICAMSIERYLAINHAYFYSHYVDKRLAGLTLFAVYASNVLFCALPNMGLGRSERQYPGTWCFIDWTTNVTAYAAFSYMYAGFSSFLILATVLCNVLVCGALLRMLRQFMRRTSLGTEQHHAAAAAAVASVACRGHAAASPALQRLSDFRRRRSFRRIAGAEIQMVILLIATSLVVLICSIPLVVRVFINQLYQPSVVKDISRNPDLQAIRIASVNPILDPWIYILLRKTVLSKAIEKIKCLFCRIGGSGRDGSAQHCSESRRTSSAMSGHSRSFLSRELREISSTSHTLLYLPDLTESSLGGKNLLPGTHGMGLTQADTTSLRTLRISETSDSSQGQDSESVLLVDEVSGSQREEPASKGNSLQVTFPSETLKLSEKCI

For orientation: IC50 means the concentration that inhibits the measured activity by half. The Ki is the dissociation constant of the complex between target and ligand, obtained from inhibition or displacement. For the compound `CCC#CC[C@H](C)[C@H](O)/C=C/[C@H]1CC(F)(F)C(=O)N1CCCCCCC(=O)O` [Example 2C, 7-((R)-3,3-difluoro-5-((3S,4S,E)-3-hydroxy-4-methylnon-1-en-6-yn-1-yl)-2-oxopyrrolidin-1-yl)heptanoic acid], the IC50 in test [1] (setting [6]) was determined as 1.3 nM. Moreover, the Ki in test [1] (setting [6]) stood at 0.49 nM. In addition, the figures for the EC50 on rat EP4 receptor [2] (setting [7]), on rat EP4 receptor [3] (setting [8]) and at rat EP2 receptor [4] (setting [8]) were 0.24 ± 0.08 nM, 0.038 ± 0.037 nM and over 1000 nM, respectively. Besides, the “Healing of a calvarial bone defect” value with calvarial bone defect is “Accelerated Healing”.
As to `CCC#CC[C@H](C)[C@H](O)/C=C/[C@H]1CC(F)(F)C(=O)N1CCc1ccc(C(=O)O)cc1` [Example 12D, 4-(2-((R)-3,3-difluoro-5-((3S,4S,E)-3-hydroxy-4-methylnon-1-en-6-yn-1-yl)-2-oxopyrrolidin-1-yl)ethyl)benzoic acid], in test [1] (setting [6]), the IC50 was determined as 0.32 nM. Besides, the inhibition constant Ki in test [1] (setting [6]) was 0.12 nM. Moreover, the EC50 on rat EP4 receptor [2] (setting [7]) is 0.047 nM; at rat EP4 receptor [3] (setting [8]), 0.035 nM; at rat EP2 receptor [4] (setting [8]) it was 1630 nM.
As to `CCCCC[C@H](O)/C=C/[C@H]1CC(F)(F)C(=O)N1CCCc1ccc(C(=O)O)s1` [Example 33C, 5-(3-((R)-3,3-difluoro-5-((S,E)-3-hydroxyoct-1-en-1-yl)-2-oxopyrrolidin-1-yl)propyl)thiophene-2-carboxylic acid], the IC50 in test [1] (human EP4 receptor binding) came out at 0.28 nM. The Ki in test [1] (human EP4 receptor binding) stood at 0.1 nM. Also, the EC50 was 0.079 nM on rat EP4 receptor [2] (cAMP readout, EP4); 0.063 nM at rat EP4 receptor [3] (SEAP readout, EP4); 326 nM at rat EP2 receptor [4] (SEAP readout, EP2).
For `CCCCC[C@H](O)/C=C/[C@H]1CC(F)(F)C(=O)N1CCc1ccc(C(=O)O)cc1` [Example 21C, 4-(2-((R)-3,3-difluoro-5-((S,E)-3-hydroxyoct-1-en-1-yl)-2-oxopyrrolidin-1-yl)ethyl)benzoic acid], the IC50 in test [1] (setting [6]) is 0.22 nM. Moreover, in test [1] (setting [6]), the Ki came to 0.082 nM. Further, the EC50 was found to be 0.61 nM at rat EP4 receptor [2] (setting [7]), 0.075 nM on rat EP4 receptor [3] (setting [8]) and 1960 nM on rat EP2 receptor [4] (setting [8]).
With `C[C@@H](CCCc1ccccc1)[C@H](O)CC[C@H]1CC(F)(F)C(=O)N1CCCc1ccc(C(=O)O)s1` [Example 28C-H2, 5-(3-((S)-3,3-difluoro-5-((3R,4S)-3-hydroxy-4-methyl-7-phenylheptyl)-2-oxopyrrolidin-1-yl)propyl)thiophene-2-carboxylic acid], the EC50 at rat EP4 receptor [2] (cAMP readout, EP4) is 0.0029 ± 0.0008 nM; at rat EP2 receptor [5], 1310 nM.
